What is called IC50 is the concentration needed to halve the response being measured.

Results on twelve molecules are retold here after patent publication US8324241B2, “Triazolo compounds useful as DGAT1 inhibitors” (Bristol-Myers Squibb Company, priority 2008, dated 2012).

In the experiment the target is T1, recombinant human DGAT1 (Homo sapiens, UniProt O75907).
T1 construct: made in house; host or cells: Sf9 insect cells (baculovirus), used as a membrane preparation
T1 sequence (O75907 1-488): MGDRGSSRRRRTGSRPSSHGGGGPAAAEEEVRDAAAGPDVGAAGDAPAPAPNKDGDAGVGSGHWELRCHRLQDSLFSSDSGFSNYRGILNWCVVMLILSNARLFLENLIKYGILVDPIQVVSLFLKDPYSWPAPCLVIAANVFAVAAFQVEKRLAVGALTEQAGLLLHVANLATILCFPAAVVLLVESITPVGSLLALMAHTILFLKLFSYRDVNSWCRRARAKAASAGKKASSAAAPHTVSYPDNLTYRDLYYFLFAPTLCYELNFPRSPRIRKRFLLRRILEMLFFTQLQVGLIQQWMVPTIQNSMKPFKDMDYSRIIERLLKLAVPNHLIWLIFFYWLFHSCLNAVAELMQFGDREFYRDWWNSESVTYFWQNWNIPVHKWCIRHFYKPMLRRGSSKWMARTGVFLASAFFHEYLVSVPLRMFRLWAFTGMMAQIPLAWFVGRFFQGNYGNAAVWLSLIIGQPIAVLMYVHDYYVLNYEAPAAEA
Put plainly: DGAT1 enzyme assay (SPA, membranes from Sf9 insect cells). In kind it is biochemical. The settings on record: 300 ng recombinant human DGAT1 membrane (Sf9), 25 μM 2-monooleoylglycerol, 25 μM [3H]-stearoyl-CoA, pH 7.4, 30 min, 25° C.; read-out: DGAT1 Enzyme Assay IC50 (inhibition). Here is the method:
DGAT1 enzyme assays were conducted using membranes isolated from Sf9 insect cells expressing the recombinant human DGAT1 cDNA. The assays were conducted in 384-well plates with total volume of 25 μl at 25° C. In each assay, 300 ng of recombinant human DGAT1 membrane was incubated with 25 μM of 2-monooleoylglycerol and 25 μM of [^3H]-stearoyl-CoA in 100 mM potassium phosphate (pH 7.4) for 30 min with various concentrations of compounds delivered in DMSO. The assay was terminated by the addition of 30 μl of Stopping Solution [50 mM HEPES, 5 mg/mL Yttrium Oxide (YOX) Polylysine SPA beads, 3.33 mg/mL Fraction V BSA, 200 μM Mercuric chloride]. The signal was measured using LEADSEEKER^SM for 5 minutes. To calculate the degree of inhibition, the zero level of enzyme activity (blank) was defined by the above assay using Sf9 cell membrane uninfected with baculovirus and the 100% level of DGAT1 enzyme activity was defined by human DGAT1 assay with the vehicle DMSO. The IC50 values of inhibitors were determined by Excel-fit.

Regarding `O=C(O)CNC(=O)c1cccn2c(-c3ccc(NC(=O)Nc4ccccc4OC(F)(F)F)cc3)nnc12` [Example 5], the IC50 is 0.17 µM.

Take `O=C(O)CCNC(=O)c1cccn2c(-c3ccc(NC(=O)Nc4ccccc4OC(F)(F)F)cc3)nnc12` [Example 6]: the IC50 amounted to 0.15 µM.

With `O=C(Nc1ccc(-c2nnc3c(C(=O)N[C@@H](Cc4ccccc4)C(=O)O)cccn23)cc1)Nc1ccccc1OC(F)(F)F` [Example 11], the IC50 came out at 0.15 µM.

Consider `O=C(Nc1ccc(-c2nnc3c(C(=O)N[C@H](C(=O)O)C4CCCCC4)cccn23)cc1)Nc1ccccc1OC(F)(F)F` [Example 14], for which the IC50 was determined as 0.18 µM.

With `CC[C@H](C)[C@H](NC(=O)c1cccn2c(-c3ccc(NC(=O)Nc4ccccc4OC(F)(F)F)cc3)nnc12)C(=O)O` [Example 16], the IC50 stood at 0.003 µM.

With `COC(=O)Nc1ccc(-c2nnc3c(C(=O)N4CCC[C@H]4C(=O)O)cccn23)cc1` [Example 22, (S)-1-(3-(4-(Methoxycarbonylamino)phenyl)-[1,2,4]triazolo[4,3-a]pyridine-8-carbonyl)pyrrolidine-2-carboxylic acid], the IC50 stood at 31 µM.

Regarding `CCC(=O)Nc1ccc(-c2nnc3c(C(=O)N[C@H](C(=O)O)C(C)C)cccn23)cc1` [Example 23, (S)-3-Methyl-2-(3-(4-propionamidophenyl)-[1,2,4]triazolo[4,3-a]pyridine-8-carboxamido)butanoic acid], the IC50 came to 43 µM.

Regarding `CC(C)[C@H](NC(=O)c1cccn2c(-c3ccc(Nc4nc5ccc(Cl)cc5s4)cc3)nnc12)C(=O)O` [Example 25, (S)-2-(3-(4-(6-Chlorobenzo[d]thiazol-2-ylamino)phenyl)-[1,2,4-]triazolo[4,3-a]pyridine-8-carboxamido)-3-methylbutanoic acid], the half-maximal inhibitory concentration (IC50) was 0.007 µM.

For the molecule `CC[C@H](NC(=O)c1cccn2c(-c3ccc(Nc4nc5ccc(Cl)cc5s4)cc3)nnc12)C(=O)O` [Example 41], the IC50 amounted to 0.005 µM.

In the case of `C[C@@H](NC(=O)c1cccn2c(-c3ccc(Nc4nccs4)cc3)nnc12)C(=O)O` [Example 47], the IC50 is 28 µM.

`O=C(O)CNC(=O)c1cccn2c(-c3ccc(Nc4nccs4)cc3)nnc12` [Example 53]: the IC50 was determined as 23 µM.

On to `CC(C)[C@H](NC(=O)c1nccn2c(-c3ccc(Nc4nc5ccc(Cl)cc5s4)cc3)nnc12)C(=O)O` [Example 63, (S)-2-(3-(4-(6-Chlorobenzothiazol-2-ylamino)phenyl)-[1,2,4]triazolo[4,3-a]pyrazine-8-carboxamido)-3-methylbutanoic acid], for which the IC50 came out at 0.007 µM.
